Assays:
[1] = Stability study at 70° C./75% RH (XRPD physical stability, HPLC purity); assay type: physicochemical; settings: 70° C. at 75% relative humidity
Source text: FIG. 54 is a plot of x-ray powder diffraction pattern taken of crystalline obicetrapib hemicalcium, and FIG. 55 is a plot of x-ray powder diffraction patterns taken of crystalline obicetrapib hemicalcium under stress conditions. In FIG. 55, there are four diffraction patterns shown based on stability study set forth in Example 11.27. Pattern 1 is an x-ray powder diffraction pattern of a sample of amorphous obicetrapib hemicalcium. Pattern 2 is the x-ray powder diffraction pattern of a sample of crystalline obicetrapib hemicalcium. In pattern 3, the sample of crystalline obicetrapib hemicalcium was exposed to 70° C. at 75% relative humidity for one day. […] Pattern 1 was taken before the sample was placed on stability.
Stability study was conducted on crystalline and amorphous forms of obicetrapib at 70° C./75% relative humidity (RH). The solids were placed into a 4.0 ml glass vial without caps (open condition) and stored at 70° C./75% RH. Samples were pulled out of the stability chamber at day 1 (24 hours) and at 7-day time point. The solids were analyzed by XRPD for physical stability and by HPLC for chemical purity. The sample collected at each time point was dissolved in methanol before HPLC analysis. In order to minimize the effect of potential analyte adsorption on the filter, the initial 0.5 mL of supernatant passing through the filter was discarded prior to collecting sample for HPLC analysis. Purity for each sample was determined based on peak area percent and compared to the sample at T=0.

[2] = Moisture uptake at high relative humidity (hygroscopicity); assay type: physicochemical; settings: relative humidities approaching 90%
Source text: When exposed to relative humidities approaching 90%, moisture uptake has been measured to be typically less than about 5% for example. […] Other drawbacks commonly associated with manufacturing and using amorphous materials are similarly not present. For example, amorphous materials are often challenging to make chemically pure.

LDL-C [3] = settings: cited from earlier work
[4] = in water; cited from earlier work
LDL-C [5] = assay: ROSE2 phase 2b clinical trial - LDL-C; assay type: in vivo, human; settings: ROSE2; ezetimibe added on top of obicetrapib
Protocol: The primary objective of this study is to evaluate the effect of obicetrapib 10 mg+ezetimibe 10 mg combination therapy compared with placebo, when used as an adjunct to high-intensity statin therapy, on LDL-C at Day 84.
The secondary objectives of this study include the following, in hierarchical order: • To evaluate the effect of obicetrapib 10 mg monotherapy compared with placebo, when used as an adjunct to high-intensity statin therapy, on LDL-C at Day 84; • To evaluate the effect of obicetrapib 10 mg+ezetimibe 10 mg combination therapy compared with placebo, when used as an adjunct to high-intensity statin therapy, on ApoB at Day 84; and • To evaluate the effect of obicetrapib 10 mg monotherapy compared with placebo, when used as an adjunct to high-intensity statin therapy, on ApoB at Day 84.
This study will be a placebo-controlled, double-blind, randomized, Phase 2 study to evaluate the efficacy, safety, and tolerability of obicetrapib 10 mg, both in combination with ezetimibe 10 mg and as monotherapy, as an adjunct to high-intensity statin therapy. This study will take place at approximately 20 sites in the United States.
Up to 2 weeks after the Screening Visit, participants will return to the site on Day 1 (Visit 2) and confirm study eligibility before being randomized and beginning treatment. Approximately 114 eligible participants (38 participants per treatment group) will be randomized in a 1:1:1 ratio to 1 of the following treatment groups: • Combination therapy: Obicetrapib 10 mg+ezetimibe 10 mg (administered as one 10 mg obicetrapib tablet and one 10 mg ezetimibe capsule); • Obicetrapib monotherapy: Obicetrapib 10 mg (administered as one 10 mg obicetrapib tablet and 1 placebo capsule); or • Placebo (administered as 1 placebo tablet and 1 placebo capsule).
During the 12-week Treatment Period, the assigned study drugs will be administered by the participants orally with water, once daily on Day 1 to Day 84 at approximately the same time each morning. Participants will return to the site on Day 28 (+2 days), Day 84 (+2 days), and Day 112 (+2 days) for efficacy, safety, and pharmacokinetic (PK) assessments. Participants, Investigators, the Clinical Research Organization (CRO), and the Sponsor will be blinded to all lipid results from Day 1 (Visit 2) for the first participant until all enrolled participants complete the Day 84 (End of Treatment) visit or are withdrawn from the study, in order to protect blinding to treatment assignment.
The primary efficacy endpoint is the percent change from Day 1 to Day 84 in LDL-C for the obicetrapib 10 mg+ezetimibe 10 mg combination treatment group compared with the placebo group.
The secondary efficacy endpoints include the following, in hierarchical order: • Percent change from Day 1 to Day 84 in LDL-C for the obicetrapib 10 mg monotherapy • treatment group compared with the placebo group; • Percent change from Day 1 to Day 84 in ApoB for the obicetrapib 10 mg+ezetimibe 10 mg • combination treatment group compared with the placebo group; and • Percent change from Day 1 to Day 84 in ApoB for the obicetrapib 10 mg monotherapy treatment group compared with the placebo group.
The exploratory efficacy endpoints include the following: • Percent change from Day 1 to Day 84 in non-HDL-C, VLDL-C, HDL-C, TG, ApoE, Lp(a), and HDL-ApoE for the obicetrapib 10 mg+ezetimibe 10 mg combination treatment group compared with the placebo group and for the obicetrapib 10 mg monotherapy treatment group compared with the placebo group; and • Proportion of participants at Day 84 that achieve LDL-C<2.6 mmol/L (<100 mg/dL), LDL-C<1.8 mmol/L (<70 mg/dL), and LDL-C<1.3 mmol/L (<50 mg/dL) for the obicetrapib 10 mg+ezetimibe 10 mg combination treatment group compared with the placebo group and for the obicetrapib 10 mg monotherapy treatment group compared with the placebo group. […]

[6] = Kinetic solubility in FaSSIF (pH 6.5) at 37° C.; assay type: physicochemical; settings: FaSSIF pH 6.5, 37° C., as obicetrapib free acid
Source text: (§1) The amorphous form has a higher kinetic solubility and dissolution rate than the crystalline form (and by extension obicetrapib itself). Both crystalline and amorphous obicetrapib hemicalcium kinetic solubility determinations were made in biorelevant media at different pHs, namely at about 5.0 (FeSSIF conditions) and at pH of about 6.5 (FaSSIF) conditions as set forth in Example 11.28.
The concentrations in Table X are those of obicetrapib (i.e., the free acid).
(§2) The solids were magnetically stirred at 600 RPM in a shaker bath and samples were drawn with a 1.0 ml syringe at T=15 mins, 30 mins, 60 mins, 90 mins and 120 mins. The solubility was measured using HPLC method provided by the client. The compound was added to 4.0 ml glass vials at approximately 20.0 mg/ml. Samples were agitated with a vortex mixer for about 5 minutes to ensure the presence of undissolved excess powder. The sample collected at each time point was centrifuged at 1200 RPM, filtered with 0.45 μm Polytetrafluoroethylene (PTFE) filters and diluted with methanol before HPLC analysis. In order to minimize the effect of potential analyte adsorption on the filter, the initial 0.5 mL of supernatant passing through the filter was discarded prior to collecting sample for HPLC analysis.

[7] = Kinetic solubility in FeSSIF (pH 5.0) at 37° C.; assay type: physicochemical; settings: FeSSIF pH 5.0, 37° C., as obicetrapib free acid
Source text: as §1
The concentrations in Table W are those of obicetrapib (i.e., the free acid).
as §2

CCOC(=O)N1c2ccc(C(F)(F)F)cc2[C@@H](N(Cc2cc(C(F)(F)F)cc(C(F)(F)F)c2)c2ncc(OCCCC(=O)O)cn2)C[C@H]1CC [amorphous obicetrapib hemicalcium]
physical stability by x-ray powder diffraction ([1]; 7 days): remained amorphous
physical stability by x-ray powder diffraction ([1]; 14 days): remained amorphous
moisture uptake [2]: less than 5%

O=C1[C@H](CC[C@H](O)c2ccc(F)cc2)[C@@H](c2ccc(O)cc2)N1c1ccc(F)cc1 [Ezetimibe, (3R,4S)-1-(4-fluorophenyl)-3-[(3S)-3-(4-fluorophenyl)-3-hydroxypropyl]-4-(4-hydroxyphenyl)azetidin-2-one]
incremental reduction in LDL-C levels (LDL-C [3]; ezetimibe in combination with statins (Catapano et al. 2016)): 15-20%
LDL-C levels reduced (LDL-C [3]; ezetimibe mono-therapy, hyperlipidemic patients (Catapano et al. 2016)): 15-22%
mean reduction in LDL-C compared with placebo (LDL-C [3]; ezetimibe monotherapy, hypercholesterolemia, meta-analysis of 8 randomized studies): 18.58%
greater reduction in LDL-C compared with statin alone (LDL-C [3]; statin and ezetimibe in combination, meta-analysis of 27 studies): 15.1%
solubility [4]: practically insoluble
additional/incremental (median) reduction of LDL-C (LDL-C [5]): about 32%

CCOC(=O)N1c2ccc(C(F)(F)F)cc2[C@@H](N(Cc2cc(C(F)(F)F)cc(C(F)(F)F)c2)c2ncc(OCCCC(=O)[O-])cn2)C[C@H]1CC.CCOC(=O)N1c2ccc(C(F)(F)F)cc2[C@@H](N(Cc2cc(C(F)(F)F)cc(C(F)(F)F)c2)c2ncc(OCCCC(=O)[O-])cn2)C[C@H]1CC.[Ca+2] [Crystalline obicetrapib hemicalcium, reference compound]
physical stability by x-ray powder diffraction ([1]; 7 days): the result remains the same
physical stability by x-ray powder diffraction ([1]; one day): near total loss of crystallinity
Concentration in Solution ([6]; 15 mins): 0.030 mg/mL
Concentration in Solution ([6]; 30 mins): 0.048 mg/mL
Concentration in Solution ([6]; 60 mins): 0.084 mg/mL
Concentration in Solution ([6]; 90 mins): 0.107 mg/mL
Concentration in Solution ([6]; 120 mins): 0.144 mg/mL
Concentration in Solution ([7]; 15 mins): 0.085 mg/mL
Concentration in Solution ([7]; 30 mins): 0.169 mg/mL
Concentration in Solution ([7]; 60 mins): 0.369 mg/mL
Concentration in Solution ([7]; 90 mins): 0.453 mg/mL
Concentration in Solution ([7]; 120 mins): 0.529 mg/mL

Source: US20250186442A1, “Obicetrapib and Ezetimibe Combination Treatment and Fixed Dose Pharmaceutical Compositions” (NewAmsterdam Pharma B.V., priority 2022, published 2025)
